Calls of active or inactive are those of the source. No cut-off for these calls is given here.

Series [1] deals with T1, Androgen receptor (Homo sapiens, UniProt P10275).
T1 sequence (P10275 whole entry): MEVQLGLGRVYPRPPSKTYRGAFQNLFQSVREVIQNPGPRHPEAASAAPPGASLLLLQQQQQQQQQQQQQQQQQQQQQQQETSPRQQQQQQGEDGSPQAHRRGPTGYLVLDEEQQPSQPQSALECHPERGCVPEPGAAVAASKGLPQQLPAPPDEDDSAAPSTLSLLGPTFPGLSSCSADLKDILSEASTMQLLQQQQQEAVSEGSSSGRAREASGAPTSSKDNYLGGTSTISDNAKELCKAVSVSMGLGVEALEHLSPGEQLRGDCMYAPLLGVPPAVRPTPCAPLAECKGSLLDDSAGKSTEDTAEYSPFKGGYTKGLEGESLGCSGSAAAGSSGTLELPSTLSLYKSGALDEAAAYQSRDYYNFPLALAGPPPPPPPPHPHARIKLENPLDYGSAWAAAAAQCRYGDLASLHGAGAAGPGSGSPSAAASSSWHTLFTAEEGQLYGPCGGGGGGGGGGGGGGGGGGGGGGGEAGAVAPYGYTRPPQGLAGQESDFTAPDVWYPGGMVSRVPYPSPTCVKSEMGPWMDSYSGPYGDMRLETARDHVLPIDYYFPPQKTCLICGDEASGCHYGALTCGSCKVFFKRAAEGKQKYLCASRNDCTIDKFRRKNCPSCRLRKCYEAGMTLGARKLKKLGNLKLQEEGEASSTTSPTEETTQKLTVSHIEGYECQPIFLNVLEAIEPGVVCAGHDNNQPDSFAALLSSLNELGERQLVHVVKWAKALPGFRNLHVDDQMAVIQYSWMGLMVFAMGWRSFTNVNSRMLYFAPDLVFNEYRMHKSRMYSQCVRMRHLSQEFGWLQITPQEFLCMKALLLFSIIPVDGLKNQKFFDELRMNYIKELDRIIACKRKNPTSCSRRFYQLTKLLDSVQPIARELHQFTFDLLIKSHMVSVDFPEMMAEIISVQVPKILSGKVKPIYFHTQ
Description: Binding affinity to GST-tagged AR ligand binding domain (unknown origin) measured after 4 hrs by fluorescence polarization assay

The next series deals with DU-145. As to the kind of experiment: Cytotoxicity against human DU-145 cells assessed as reduction in cell viability incubated for 72 hrs by MTT assay. It counts as functional, cell-based.
Series [2] addresses T2, Androgen receptor (Homo sapiens) (UniProt P10275).
T2 sequence (whole entry): T1 sequence (P10275 whole entry)
As to the kind of experiment: Antagonist activity at androgen receptor in human LNCaP cells assessed as reduction in DHT-induced PSA mRNA expression after 48 hrs by SYBR green dye based qPCR analysis. As to conditions: filed as antagonist, dose 0.1-10 µM. The series is classed as cell-based.

The subject of another series is HepG2. Put plainly: Cytotoxicity against human HepG2 cells assessed as reduction in cell viability at 50 uM incubated for 72 hrs by MTT assay. The series is classed as functional, cell-based.
In series [3] the target is T3, Mineralocorticoid receptor (Homo sapiens) (UniProt P08235).
T3 sequence (whole entry): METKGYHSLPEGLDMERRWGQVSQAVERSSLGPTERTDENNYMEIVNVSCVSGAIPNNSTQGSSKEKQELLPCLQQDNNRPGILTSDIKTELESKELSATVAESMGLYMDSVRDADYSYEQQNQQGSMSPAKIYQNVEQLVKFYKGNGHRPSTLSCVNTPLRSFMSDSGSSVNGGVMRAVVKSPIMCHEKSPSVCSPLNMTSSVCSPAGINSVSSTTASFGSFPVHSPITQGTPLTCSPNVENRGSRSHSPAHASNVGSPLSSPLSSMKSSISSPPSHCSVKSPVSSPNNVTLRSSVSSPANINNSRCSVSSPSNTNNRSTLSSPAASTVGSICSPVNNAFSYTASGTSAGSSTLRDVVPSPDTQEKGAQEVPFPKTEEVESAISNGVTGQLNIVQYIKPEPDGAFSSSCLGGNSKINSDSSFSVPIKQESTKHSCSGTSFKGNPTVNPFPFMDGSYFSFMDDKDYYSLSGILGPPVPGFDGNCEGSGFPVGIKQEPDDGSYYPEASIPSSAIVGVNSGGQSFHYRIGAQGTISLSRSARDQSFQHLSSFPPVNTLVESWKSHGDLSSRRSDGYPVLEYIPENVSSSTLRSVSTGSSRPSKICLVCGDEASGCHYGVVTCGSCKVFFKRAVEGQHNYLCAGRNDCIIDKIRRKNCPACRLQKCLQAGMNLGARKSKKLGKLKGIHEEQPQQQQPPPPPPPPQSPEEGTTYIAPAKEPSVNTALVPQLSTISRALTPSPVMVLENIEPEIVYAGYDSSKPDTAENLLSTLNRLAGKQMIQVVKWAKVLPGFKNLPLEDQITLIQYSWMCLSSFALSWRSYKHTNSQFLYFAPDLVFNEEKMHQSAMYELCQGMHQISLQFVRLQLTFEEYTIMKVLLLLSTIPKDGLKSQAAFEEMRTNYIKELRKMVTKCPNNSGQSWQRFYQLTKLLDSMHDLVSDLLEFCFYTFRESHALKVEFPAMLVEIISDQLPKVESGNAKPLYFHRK
As to the kind of experiment: Antagonist activity at mineralocorticoid receptor in human PC-3 cells assessed as reduction in aldosterone-induced luciferase activity at 10 uM by dual-Glo luciferase assay. The series is classed as cell-based.

The subject of another series is PC-3. As to the kind of experiment: Cytotoxicity against human PC-3 cells assessed as reduction in cell viability incubated for 72 hrs by MTT assay. It counts as functional, cell-based.
The next series deals with MCF7. As to the kind of experiment: Cytotoxicity against human MCF7 cells assessed as reduction in cell viability at low concentration incubated for 72 hrs by MTT assay. It counts as functional, cell-based.
For a further series, the system named is GES1. Put plainly: Cytotoxicity against human GES1 cells assessed as reduction in cell viability incubated for 72 hrs by MTT assay. The series is classed as cell-based. The conditions noted are these: ges1, 72 h.
Series [4] concerns HeLa. As to the kind of experiment: Cytotoxicity against human HeLa cells assessed as reduction in cell viability at 50 uM incubated for 72 hrs by MTT assay. The series is classed as functional, cell-based.
The target of series [5] is T1, Androgen receptor. Put plainly: Inhibition of AR transcriptional activity in human LNCaP cells harboring ARR2PB-eGFP incubated for 72 hrs by fluorescence assay. The series is classed as cell-based.
The subject of series [6] is HeLa. Put plainly: Cytotoxicity against human HeLa cells assessed as reduction in cell viability at low concentration incubated for 72 hrs by MTT assay. It counts as functional, cell-based.

Regarding `O=c1cc(C(F)(F)F)c2ccc(OCc3ccc(Br)cc3)cc2o1`, the half-inhibitory concentration (IC50) was 750 nM on Androgen receptor [1] and 170 nM on Androgen receptor [5]. Besides, the result in the series on DU-145, in the series with HepG2, in the series with PC-3 and in the series with HeLa [4] was Active. The figures for the Activity result (in [2]; in the series on GES1) were “Dose-dependent effect” and “Non-Toxic”, respectively. Also, the outcome (in [3]; with MCF7; in the series on HeLa [6]) was inactive.

These data come from ChEMBL document CHEMBL5055679, “Discovery of a Novel Androgen Receptor Antagonist Manifesting Evidence to Disrupt the Dimerization of the Ligand-Binding Domain via Attenuating the Hydrogen-Bonding Network Between the Two Monomers” (J Med Chem, 2021).
